# According to patent US11226337B2, “Chemoproteomic profiling of protein electrophilic and oxidative post-translational modifications” (Zenagem, LLC, priority 2017, dated 2022):
# Columns and labels:
# Test in all cases: SILAC RP-ABPP
# Assay type in all cases: cell-based
# [1] = target: T1, KDM5C Lysinespecific demethylase 5C (P41229) (Homo sapiens, UniProt P41229); settings: SILAC H/L, HEK293T
# T1 construct: In Situ Labelling of Cells with Hydrazine Probes for MS Experiments; endogenous in cells; host or cells: HEK293T and/or MDA-MB-231
# Description: (§1) For MS-based experiments, labelling was performed in a similar manner as described above in Example 2, maintaining the same concentrations of probes. Modifications to this protocol included using isotopically ‘light’ and ‘heavy’ SILAC cells that were also grown to near complete confluence prior to treatment. Isotopically light cells were treated with the non-clickable hydrazine probe (at the same concentration as the probe in ‘enrichment’ experiments) or the probe in the presence of 10-fold excess non-clickable hydrazine probe as a competitor (in ‘competition’ experiments). Isotopically heavy cells were treated with the probe for both types of experiments. These treatments were performed in non-SILAC media. Following treatments, cells were washed with cold PBS to remove the probe-containing media, harvested by scraping, collected by centrifugation (1,400 g, 3 min, 4° C.), washed again by resuspension in cold PBS and frozen as pellets at −80° C. until use.
# (§2) The fractionated equimolar mixture of heavy and light soluble proteomes (1-1.5 mg) was diluted to 1 mL in PBS. Click reactions were scaled accordingly (except for biotin-azide) to maintain final concentrations of 0.1 mM TBTA, 1 mM CuSO4, 100 μM biotin-azide (10 mM in DMSO) and 1 mM TCEP. The mixture was vortexed and placed on a rotator at ambient temperature for 1 hour. Sequential addition of and mixture with pre-chilled methanol (MeOH, 2 mL), chloroform (CHCl3, 0.5 mL) and PBS (1 mL) on ice quenched the reaction. The precipitated proteome was centrifuged (5,000 g, 10 min, 4° C.) to fractionate the protein interphase from the organic and aqueous solvent layers. The protein pellet was washed with cold 1:1 MeOH:CHCl3 (3×1 mL), mildly sonicated in cold 4:1 MeOH:CHCl3 (2.5 mL) and pelleted once more by centrifugation (5,000 g, 10 min, 4° C.) to ensure click reagents were efficiently removed.
# (§3) Heavy and light parent ion chromatograms associated with successfully identified peptides were extracted and compared using CIMAGE software as previously described^69. At least one ion of a co-eluting heavy-light pair must be accurately identified from a fragmentation event that occurred within the retention time window (±10 min) of parent ion elution. To ensure that the correct pair of peaks is quantified, chromatograms are extracted within a 10 ppm error tolerance of the predicted m/z, the signal-to-noise ratio must be >2.5 and the ‘co-elution correlation score’ and ‘envelope correlation score’ must have R^2 values ≥0.8. In addition, peptides detected as ‘singletons,’ where only the heavy ion of a peptide pair was identified, but for which passed all other filtering parameters, are given a default assigned ratio of ‘20,’ which is defined as any measured ratio that is ≥20.
# (§4) To further eliminate false positives and any stochastic variability in the data, protein ratios were then determined by the median peptide ratio derived from three or more unique quantified peptides. Protein ratios that complied with these criteria from a single experiment were then averaged with ratios acquired from ≥3 replicates to provide final values for each type of experiment in both cell lines with both probes. […] Most importantly, there are no robustly measured ratios for proteins identified as probe 1 targets that had measured ratios of ˜1 with probe 2. Probe targets in HEK293T and MDA-MB-231 cells represent data combined from ≥3 independent biological replicates with each cell type performed with several independent batches of synthesized probes over a period of almost two years.
# (§5) Analogous experiments were also performed with the aryl hydrazine probe 2 (1 mM, 0.5 hour), which furnished a larger list of high-reactivity proteins (33 in total; Table 3) that contained several of the targets of probe 1 (compared in Table 4), as well as additional proteins that may reflect an expanded chemical reactivity for probe 2.
# [2] = target: T2, CTSS Cathepsin S (P25774) (Homo sapiens, UniProt P25774); settings: SILAC H/L, MDA-MB-231
# T2 construct: endogenous in cells; host or cells: HEK293T or MDA-MB-231
# Description: as §1, §2, §3, §4, §5
# CAT Catalase (P04040) = target: T3, CAT Catalase (P04040) (Homo sapiens, UniProt P04040); settings: SILAC H/L, MDA-MB-231
# T3 construct: endogenous in cells; host or cells: HEK293T or MDA-MB-231
# Description: as §1, §2, §3, §4, §5
# [3] = target: T4, P4HA2 Prolyl 4hydroxylase subunit alpha2 (O15460) (Homo sapiens, UniProt O15460); settings: SILAC H/L, MDA-MB-231
# T4 construct: endogenous in cells; host or cells: HEK293T or MDA-MB-231
# Description: as §1, §2, §3, §4, §5
# [4] = target: T5, HEXB Betahexosaminidase subunit beta (P07686) (Homo sapiens, UniProt P07686); settings: SILAC H/L, MDA-MB-231
# T5 construct: endogenous in cells; host or cells: HEK293T or MDA-MB-231
# Description: as §1, §2, §3, §4, §5
# [5] = target: T6, ACAA1 3ketoacylCoA thiolase, peroxisomal (P09110) (Homo sapiens, UniProt P09110); settings: SILAC H/L, MDA-MB-231
# T6 construct: endogenous in cells; host or cells: HEK293T or MDA-MB-231
# Description: as §1, §2, §3, §4, §5
# [6] = target: T7, NAGA AlphaNacetylgalactosaminidase (P17050) (Homo sapiens, UniProt P17050); settings: SILAC H/L, MDA-MB-231
# T7 construct: endogenous in cells; host or cells: HEK293T or MDA-MB-231
# Description: as §1, §2, §3, §4, §5
# [7] = target: T8, PYROXD2 Pyridine nucleotidedisulfide (Q8N2H3) (Homo sapiens, UniProt Q8N2H3); settings: SILAC H/L, MDA-MB-231
# T8 construct: In Situ Labelling of Cells with Hydrazine Probes for MS Experiments; endogenous in cells; host or cells: HEK293T and/or MDA-MB-231
# Description: as §1, §2, §3, §4, §5
# [8] = target: T9, FTL Ferritin light chain (P02792) (Homo sapiens, UniProt P02792); settings: SILAC H/L, MDA-MB-231
# T9 construct: endogenous in cells; host or cells: HEK293T or MDA-MB-231
# Description: as §1, §2, §3, §4, §5
# [9] = target: T10, TTC38 Tetratricopeptide repeat protein 38 (Q5R3I4) (Homo sapiens, UniProt Q5R3I4); settings: SILAC H/L, HEK293T
# T10 construct: In Situ Labelling of Cells with Hydrazine Probes for MS Experiments; endogenous in cells; host or cells: HEK293T and/or MDA-MB-231
# Description: as §1, §2, §3, §4, §5
# [10] = target: T11, PLBD2 Putative phospholipase Blike 2 (Q8NHP8) (Homo sapiens, UniProt Q8NHP8); settings: SILAC H/L, MDA-MB-231
# T11 construct: endogenous in cells; host or cells: HEK293T or MDA-MB-231
# Description: as §1, §2, §3, §4, §5
# [11] = target: T12, FADS1 Fatty acid desaturase 1 (O60427) (Homo sapiens, UniProt O60427); settings: SILAC H/L, HEK293T
# T12 construct: In Situ Labelling of Cells with Hydrazine Probes for MS Experiments; endogenous in cells; host or cells: HEK293T and/or MDA-MB-231
# Description: as §1, §2, §3, §4, §5
# [12] = target: T13, MMP14 Matrix metalloproteinase14 (P50281) (Homo sapiens, UniProt P50281); settings: SILAC H/L, MDA-MB-231
# T13 construct: endogenous in cells; host or cells: HEK293T or MDA-MB-231
# Description: as §1, §2, §3, §4, §5
# [13] = target: T14, CYP27A1 Sterol 26hydroxylase, mitochondrial (Q02318) (Homo sapiens, UniProt Q02318); settings: SILAC H/L, MDA-MB-231
# T14 construct: endogenous in cells; host or cells: HEK293T or MDA-MB-231
# Description: as §1, §2, §3, §4, §5
# T4 sequence (O15460 22-535): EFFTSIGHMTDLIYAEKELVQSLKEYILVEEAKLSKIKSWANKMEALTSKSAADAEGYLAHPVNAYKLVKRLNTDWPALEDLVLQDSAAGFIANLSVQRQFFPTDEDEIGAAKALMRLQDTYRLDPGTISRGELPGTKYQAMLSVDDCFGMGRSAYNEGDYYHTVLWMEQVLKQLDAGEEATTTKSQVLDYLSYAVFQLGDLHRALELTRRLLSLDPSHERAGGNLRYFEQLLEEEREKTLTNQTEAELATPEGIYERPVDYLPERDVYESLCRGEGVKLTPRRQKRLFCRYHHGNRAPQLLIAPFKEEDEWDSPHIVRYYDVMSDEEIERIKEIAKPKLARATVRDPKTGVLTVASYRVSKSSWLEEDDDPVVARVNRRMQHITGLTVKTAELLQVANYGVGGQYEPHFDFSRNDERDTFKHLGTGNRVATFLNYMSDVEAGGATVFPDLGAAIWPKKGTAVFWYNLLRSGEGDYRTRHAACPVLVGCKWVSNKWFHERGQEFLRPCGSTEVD
# T4 sequence (P07237 18-508 partner): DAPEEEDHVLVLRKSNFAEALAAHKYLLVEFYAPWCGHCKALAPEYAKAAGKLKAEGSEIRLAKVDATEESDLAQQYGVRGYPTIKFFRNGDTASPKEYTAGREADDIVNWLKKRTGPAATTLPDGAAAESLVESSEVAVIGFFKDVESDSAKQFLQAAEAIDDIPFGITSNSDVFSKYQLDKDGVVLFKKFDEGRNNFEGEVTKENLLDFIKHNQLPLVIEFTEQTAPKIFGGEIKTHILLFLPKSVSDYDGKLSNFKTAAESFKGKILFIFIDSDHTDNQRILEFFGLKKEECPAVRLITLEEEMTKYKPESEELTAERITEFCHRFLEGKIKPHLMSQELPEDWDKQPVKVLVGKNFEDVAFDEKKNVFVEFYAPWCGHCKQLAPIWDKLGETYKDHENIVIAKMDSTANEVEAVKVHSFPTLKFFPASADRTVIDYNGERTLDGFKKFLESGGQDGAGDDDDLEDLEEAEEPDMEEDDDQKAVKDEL
# T6 sequence (P09110 27-424): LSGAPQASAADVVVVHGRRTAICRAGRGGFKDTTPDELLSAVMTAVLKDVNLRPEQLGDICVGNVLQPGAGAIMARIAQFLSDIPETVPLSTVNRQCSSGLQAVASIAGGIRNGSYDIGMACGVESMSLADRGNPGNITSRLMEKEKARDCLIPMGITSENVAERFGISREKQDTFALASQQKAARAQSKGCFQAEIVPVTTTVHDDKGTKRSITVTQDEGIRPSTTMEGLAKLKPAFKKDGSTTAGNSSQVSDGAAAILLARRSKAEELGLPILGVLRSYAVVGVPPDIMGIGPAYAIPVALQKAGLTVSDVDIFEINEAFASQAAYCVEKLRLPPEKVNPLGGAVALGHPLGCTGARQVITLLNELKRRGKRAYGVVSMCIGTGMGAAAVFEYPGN
# T2 sequence (P25774 115-331): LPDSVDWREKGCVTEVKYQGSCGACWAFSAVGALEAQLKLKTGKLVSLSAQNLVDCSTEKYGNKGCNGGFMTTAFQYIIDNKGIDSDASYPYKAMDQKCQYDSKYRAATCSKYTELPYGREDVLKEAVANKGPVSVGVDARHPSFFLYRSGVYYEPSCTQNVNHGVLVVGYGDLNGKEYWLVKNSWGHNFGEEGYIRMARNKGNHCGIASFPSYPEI
# T14 sequence (Q02318 34-531): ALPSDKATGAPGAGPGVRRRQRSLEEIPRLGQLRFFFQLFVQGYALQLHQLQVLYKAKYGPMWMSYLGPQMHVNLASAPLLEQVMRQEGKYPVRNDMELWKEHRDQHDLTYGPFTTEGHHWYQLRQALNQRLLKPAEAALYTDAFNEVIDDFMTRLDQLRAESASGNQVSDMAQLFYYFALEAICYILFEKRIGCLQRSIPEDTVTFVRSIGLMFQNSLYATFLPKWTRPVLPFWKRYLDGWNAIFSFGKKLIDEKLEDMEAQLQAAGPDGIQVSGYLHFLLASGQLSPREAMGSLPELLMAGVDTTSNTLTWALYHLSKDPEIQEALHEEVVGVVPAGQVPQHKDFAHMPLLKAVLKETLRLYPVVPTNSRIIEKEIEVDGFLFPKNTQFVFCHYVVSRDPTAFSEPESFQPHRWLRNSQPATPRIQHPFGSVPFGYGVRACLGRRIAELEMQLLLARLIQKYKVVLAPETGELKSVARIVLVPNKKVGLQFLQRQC
# T5 sequence (P07686 122-556, one chain of several): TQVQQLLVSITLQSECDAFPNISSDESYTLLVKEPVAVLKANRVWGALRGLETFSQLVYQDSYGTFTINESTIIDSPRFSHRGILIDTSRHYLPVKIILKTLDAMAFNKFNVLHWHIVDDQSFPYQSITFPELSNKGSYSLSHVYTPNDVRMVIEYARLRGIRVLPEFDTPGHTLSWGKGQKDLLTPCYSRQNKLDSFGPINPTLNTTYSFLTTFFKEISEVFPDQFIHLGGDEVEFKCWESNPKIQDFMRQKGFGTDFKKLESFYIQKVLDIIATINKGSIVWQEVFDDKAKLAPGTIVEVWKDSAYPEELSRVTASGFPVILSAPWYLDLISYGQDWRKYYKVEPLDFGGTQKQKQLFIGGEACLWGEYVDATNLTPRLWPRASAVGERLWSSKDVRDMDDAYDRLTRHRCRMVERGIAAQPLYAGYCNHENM
# T3 sequence (P04040 whole entry): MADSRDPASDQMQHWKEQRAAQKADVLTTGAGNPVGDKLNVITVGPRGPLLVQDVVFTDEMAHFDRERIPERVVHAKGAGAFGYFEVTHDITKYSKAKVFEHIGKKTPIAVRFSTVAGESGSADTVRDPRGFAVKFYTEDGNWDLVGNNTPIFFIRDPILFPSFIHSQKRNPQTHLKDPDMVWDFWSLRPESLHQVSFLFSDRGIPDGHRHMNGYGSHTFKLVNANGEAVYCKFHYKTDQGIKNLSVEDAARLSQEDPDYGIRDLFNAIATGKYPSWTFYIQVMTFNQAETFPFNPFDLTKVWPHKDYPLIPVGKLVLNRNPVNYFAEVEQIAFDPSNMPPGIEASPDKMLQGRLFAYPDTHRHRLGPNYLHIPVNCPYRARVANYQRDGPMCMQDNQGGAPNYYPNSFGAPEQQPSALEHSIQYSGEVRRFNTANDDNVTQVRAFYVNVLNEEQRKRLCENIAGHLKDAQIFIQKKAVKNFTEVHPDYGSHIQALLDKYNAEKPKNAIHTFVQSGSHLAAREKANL
# T12 sequence (O60427 whole entry): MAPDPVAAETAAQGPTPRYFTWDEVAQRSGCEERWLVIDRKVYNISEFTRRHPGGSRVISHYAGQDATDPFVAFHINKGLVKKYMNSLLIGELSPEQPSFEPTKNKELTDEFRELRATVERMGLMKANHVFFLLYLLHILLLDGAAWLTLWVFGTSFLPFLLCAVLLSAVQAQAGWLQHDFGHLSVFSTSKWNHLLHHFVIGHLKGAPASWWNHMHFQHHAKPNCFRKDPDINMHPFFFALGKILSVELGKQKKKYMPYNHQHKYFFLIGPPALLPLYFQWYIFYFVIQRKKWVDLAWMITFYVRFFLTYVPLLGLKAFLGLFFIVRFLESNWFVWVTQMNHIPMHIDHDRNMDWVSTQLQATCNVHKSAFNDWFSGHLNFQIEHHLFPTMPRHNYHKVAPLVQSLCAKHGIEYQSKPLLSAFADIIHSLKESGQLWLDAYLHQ
# T9 sequence (P02792 2-175): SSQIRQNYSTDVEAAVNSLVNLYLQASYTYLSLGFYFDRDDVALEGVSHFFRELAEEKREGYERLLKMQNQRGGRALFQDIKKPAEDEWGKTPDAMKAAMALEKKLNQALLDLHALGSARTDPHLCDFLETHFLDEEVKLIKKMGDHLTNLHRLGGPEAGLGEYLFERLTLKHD
# T7 sequence (P17050 18-411): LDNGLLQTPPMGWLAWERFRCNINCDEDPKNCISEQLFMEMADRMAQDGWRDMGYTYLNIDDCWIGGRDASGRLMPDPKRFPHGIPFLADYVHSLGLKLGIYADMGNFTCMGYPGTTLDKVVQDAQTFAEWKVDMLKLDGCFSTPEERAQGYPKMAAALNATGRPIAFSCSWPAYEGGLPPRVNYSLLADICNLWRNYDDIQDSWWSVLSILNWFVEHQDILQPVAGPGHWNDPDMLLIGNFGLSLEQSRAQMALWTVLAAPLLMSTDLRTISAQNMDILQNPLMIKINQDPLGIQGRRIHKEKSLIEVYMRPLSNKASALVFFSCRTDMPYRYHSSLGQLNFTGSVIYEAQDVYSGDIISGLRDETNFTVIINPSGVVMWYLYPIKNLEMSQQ
# T8 sequence (Q8N2H3 whole entry): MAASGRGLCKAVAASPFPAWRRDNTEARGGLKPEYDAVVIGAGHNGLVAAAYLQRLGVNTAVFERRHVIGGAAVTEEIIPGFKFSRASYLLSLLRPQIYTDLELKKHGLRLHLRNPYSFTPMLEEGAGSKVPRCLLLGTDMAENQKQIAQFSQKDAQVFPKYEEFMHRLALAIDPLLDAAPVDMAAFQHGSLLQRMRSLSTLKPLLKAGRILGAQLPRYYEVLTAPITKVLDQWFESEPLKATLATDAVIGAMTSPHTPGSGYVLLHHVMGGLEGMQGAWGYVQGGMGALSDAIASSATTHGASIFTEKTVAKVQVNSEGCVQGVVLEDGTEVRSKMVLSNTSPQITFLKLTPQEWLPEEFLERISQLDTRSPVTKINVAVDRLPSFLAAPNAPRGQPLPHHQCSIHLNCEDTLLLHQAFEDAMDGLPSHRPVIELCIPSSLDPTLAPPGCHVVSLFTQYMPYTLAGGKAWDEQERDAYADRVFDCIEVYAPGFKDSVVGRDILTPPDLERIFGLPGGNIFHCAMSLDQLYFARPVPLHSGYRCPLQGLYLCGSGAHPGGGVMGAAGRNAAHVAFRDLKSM
smiles,measurement,setting,value
"C#CCCNC(=O)c1ccc(NN)cc1.Cl [probe 2, N-(but-3-yn-1-yl)-4-hydrazinylbenzamide hydrochloride]",enrichment ratioavg,[1]; probe 2 1 mM 0.5 h vs probe 4,19
same,competition ratioavg,[1]; probe 2 vs probe 2+10x probe 4,3
same,enrichment ratioavg,[2]; probe 2 1 mM 0.5 h vs probe 4,18
same,competition ratioavg,[2]; probe 2 vs probe 2+10x probe 4,3
same,enrichment ratioavg,CAT Catalase (P04040); probe 2 1 mM 0.5 h vs probe 4,20
same,competition ratioavg,CAT Catalase (P04040); probe 2 vs probe 2+10x probe 4,1
same,enrichment ratioavg,[3]; probe 2 1 mM 0.5 h vs probe 4,20
same,competition ratioavg,[3]; probe 2 vs probe 2+10x probe 4,3
same,enrichment ratioavg,[4]; probe 2 1 mM 0.5 h vs probe 4,11
same,competition ratioavg,[4]; probe 2 vs probe 2+10x probe 4,3
same,enrichment ratioavg,[5]; probe 2 1 mM 0.5 h vs probe 4,6
same,competition ratioavg,[5]; probe 2 vs probe 2+10x probe 4,2
same,enrichment ratioavg,[6]; probe 2 1 mM 0.5 h vs probe 4,17
same,competition ratioavg,[6]; probe 2 vs probe 2+10x probe 4,3
same,enrichment ratioavg,[7]; probe 2 1 mM 0.5 h vs probe 4,20
same,competition ratioavg,[7]; probe 2 vs probe 2+10x probe 4,20
same,enrichment ratioavg,[8]; probe 2 1 mM 0.5 h vs probe 4,7
same,competition ratioavg,[8]; probe 2 vs probe 2+10x probe 4,3
same,enrichment ratioavg,[9]; probe 2 1 mM 0.5 h vs probe 4,14
same,competition ratioavg,[9]; probe 2 vs probe 2+10x probe 4,2
same,enrichment ratioavg,[10]; probe 2 1 mM 0.5 h vs probe 4,9
same,competition ratioavg,[10]; probe 2 vs probe 2+10x probe 4,3
same,enrichment ratioavg,[11]; probe 2 1 mM 0.5 h vs probe 4,20
same,competition ratioavg,[11]; probe 2 vs probe 2+10x probe 4,4
same,enrichment ratioavg,[12]; probe 2 1 mM 0.5 h vs probe 4,10
same,competition ratioavg,[12]; probe 2 vs probe 2+10x probe 4,3
same,enrichment ratioavg,[13]; probe 2 1 mM 0.5 h vs probe 4,20
same,competition ratioavg,[13]; probe 2 vs probe 2+10x probe 4,3
